Data from patent US20240293380A1, “PROTEASE INHIBITORS AND METHODS OF USE” (priority 2021, published 2024).

Target: SARS-CoV-2 3CLpro (Severe acute respiratory syndrome coronavirus 2 (2019-nCoV) (SARS-CoV-2), UniProt P0DTD1)
Assay: not given
Assay type: biochemical
Conditions: not given

| Compound | IC50 [nM] | SARS-CoV-2 IC50 (nM) |
| --- | --- | --- |
| O=C(Cc1cncc2ccccc12)N(Cc1cc(F)cc(Cl)c1)c1ccc(-c2c[nH]cn2)cc1 [Compound 12, N-[(3-chloro-5-fluoro-phenyl)methyl]-N-[4-(1H-imidazol-4-yl)phenyl]-2-(4-isoquinolyl)acetamide] | 15 |  |
| O=C(Cc1cncc2ccccc12)N(Cc1cncc(C(F)(F)F)c1)c1ccc(-c2c[nH]cn2)cc1 [Compound 39] | 82 |  |
| Cc1cncc(CC(=O)N(Cc2cc(F)cc(F)c2)c2ccc(-c3c[nH]cn3)cc2)c1 [Compound 66] | 103 |  |
| O=C(Cc1cncc2ccccc12)N(Cc1cncc(F)c1)c1ccc(C2CNC2)cc1 [Compound 60] | 193 |  |
| COc1ccc(Cl)cc1CN(C(=O)Cc1cncc2ccccc12)c1ccc(-c2c[nH]cn2)cc1 [Compound 18] | 191 |  |
| O=C(Cc1nnc(-c2ccccc2)s1)N(Cc1cccc(Cl)c1)c1ccc(-c2cn[nH]c2)cc1 [Compound 8, N-[(3-chlorophenyl)methyl]-2-(5-phenyl-1,3,4-thiadiazol-2-yl)-N-[4-(1H-pyrazol-4-yl)phenyl]acetamide] |  | Inactive |
| COc1cc(F)cc(CN(C(=O)Cc2cncc3ccccc23)c2ccc(-c3c[nH]cn3)cc2)c1 [Compound 54] | 90 |  |
| O=C(Cc1cncc2ccccc12)N(Cc1cc(F)cc(F)c1)c1ccc(-c2c[nH]cn2)cc1 [Compound 28] | 53 |  |
| O=C(Cc1cncc2ccccc12)N(Cc1cccc(Cl)c1)c1ccc(-c2cn[nH]c2)cc1 [Compound 2, N-[(3-chlorophenyl)methyl]-2-(4-isoquinolyl)-N-[4-(1H-pyrazol-4-yl)phenyl]acetamide] | 30 |  |
| O=C(Cc1noc2ccccc12)N(Cc1cc(F)cc(Cl)c1)c1ccc(-c2c[nH]cn2)cc1 [Compound 49] | 839 |  |
| O=C(Cc1nnc2ccccn12)N(Cc1cc(F)cc(Cl)c1)c1ccc(-c2c[nH]cn2)cc1 [Compound 9, N-[(3-chloro-5-fluoro-phenyl)methyl]-N-[4-(1H-imidazol-4-yl)phenyl]-2-([1,2,4]triazolo[4,3-a]pyridin-3-yl)acetamide] | 71 |  |
| O=C(Cc1cncc(F)c1)N(Cc1cc(F)cc(Cl)c1)c1ccc(-c2c[nH]cn2)cc1 [Compound 69] | 220 |  |
| O=C(Cc1cncc(F)c1)N(Cc1cncc(F)c1)c1ccc(-c2c[nH]cn2)cc1 [Compound 81] | 1310 |  |
| O=C(Cc1cncc2ccccc12)N(Cc1cccc(Cl)c1F)c1ccc(-c2c[nH]cn2)cc1 [Compound 16] | 370 |  |
| O=C(Cc1nnc2ccc(F)cn12)N(Cc1cccc(Cl)c1)c1ccc(-c2cn[nH]c2)cc1 [Compound 3, N-[(3-chlorophenyl)methyl]-2-(6-fluoro-[1,2,4]triazolo[4,3-a]pyridin-3-yl)-N-[4-(1H-pyrazol-4-yl)phenyl]acetamide] | 3360 |  |
| Cc1cncc(CC(=O)N(Cc2cc(F)cc(Cl)c2)c2ccc(C3CNC3)cc2)c1 [Compound 80] | 110 |  |
| CC(C)(C)NC(=O)C(c1cc(F)cc(F)c1)N(C(=O)Cc1cncc2ccccc12)c1ccc(C2=CCNC2)cc1 (stereo not shown) [Compound 63] | 1030 |  |
| O=C(Cc1cncc2ccccc12)N(Cc1ccc(Cl)c(F)c1)c1ccc(-c2c[nH]cn2)cc1 [Compound 58] | 1090 |  |
| O=C(Cc1nnc2ccc(F)cn12)N(Cc1cc(F)cc(Cl)c1)c1ccc(-c2c[nH]cn2)cc1 [Compound 10, N-[(3-chloro-5-fluoro-phenyl)methyl]-2-(6-fluoro-[1,2,4]triazolo[4,3-a]pyridin-3-yl)-N-[4-(1H-imidazol-4-yl)phenyl]acetamide] | 77 |  |
| O=C(Cc1cncc(C2CC2)c1)N(Cc1cc(F)cc(Cl)c1)c1ccc(-c2c[nH]cn2)cc1 [Compound 71] | 115 |  |
| NCc1ccc(N(Cc2cc(F)cc(F)c2)C(=O)Cc2cncc3ccccc23)cc1 [Compound 74] | 76 |  |
| O=C(Cc1cncc2ccccc12)N(Cc1cncc(F)c1)c1ccc(-c2c[nH]cn2)cc1 [Compound 40] | 53 |  |
| O=C(Cc1cncc2ccccc12)N(Cc1cc(F)cc(Cl)c1)c1ccc(C2CNC2)cc1 [Compound 72] | 56 |  |
| O=C(Cc1nnc2ccccn12)N(Cc1cccc(F)c1F)c1ccc(-c2c[nH]cn2)cc1 [Compound 24] | 1300 |  |
| O=C(Cc1cnccc1Cl)N(Cc1cc(F)cc(Cl)c1)c1ccc(-c2c[nH]cn2)cc1 [Compound 76] | 311 |  |
| O=C(Cc1cncc2ccccc12)N(Cc1cc(Cl)ccc1F)c1ccc(-c2c[nH]cn2)cc1 [Compound 15] | 308 |  |

| Compound | IC50 [nM] | SARS-CoV-2 IC50 (nM) |
| --- | --- | --- |
| O=C(Cc1cncc2ccccc12)N(Cc1cc(F)ccc1F)c1ccc(-c2c[nH]cn2)cc1 [Compound 23] | 159 |  |
| CC(C)CN(C(=O)Cc1nnc2ccccn12)c1ccc(-c2c[nH]cn2)cc1 [Compound 46] | 8100 |  |
| O=C(Cc1cccnc1)N(Cc1cc(F)cc(Cl)c1)c1ccc(-c2c[nH]cn2)cc1 [Compound 43] | 188 |  |
| O=C(Cc1nncc2ccccc12)N(Cc1cc(F)cc(Cl)c1)c1ccc(-c2c[nH]cn2)cc1 [Compound 73] | 61 |  |
| O=C(Cc1cncnc1)N(Cc1cc(F)cc(Cl)c1)c1ccc(-c2c[nH]cn2)cc1 [Compound 48] | 542 |  |
| O=C(Cc1cnccc1C(F)(F)F)N(Cc1cc(F)cc(Cl)c1)c1ccc(-c2c[nH]cn2)cc1 [Compound 75] | 1000 |  |
| O=C(Cc1cccnn1)N(Cc1cc(F)cc(Cl)c1)c1ccc(-c2c[nH]cn2)cc1 [Compound 52] | 389 |  |
| O=C(Cc1cncc2ccccc12)N(Cc1cc(F)cc(Cl)c1)c1ccc(C2=CCNC2)cc1 [Compound 57] | 81 |  |
| O=C(Cc1cnccn1)N(Cc1cccc(Cl)c1)c1ccc(-c2cn[nH]c2)cc1 [Compound 5, N-[(3-chlorophenyl)methyl]-2-pyrazin-2-yl-N-[4-(1H-pyrazol-4-yl)phenyl]acetamide] | 5220 |  |
| O=C1NC(CC(=O)N(Cc2cc(F)cc(Cl)c2)c2ccc(-c3c[nH]cn3)cc2)c2ccccc21 (stereo not shown) [Compound 50] | 30800 |  |
| O=C(Cc1cncc2ccccc12)N(Cc1cc(F)cc(F)c1)c1ccc(C2CNC2)cc1 [Compound 62] | 69 |  |
| O=C(Cc1nnc2ccccn12)N(Cc1cccc(F)c1)c1ccc(-c2c[nH]cn2)cc1 [Compound 47] | 621 |  |
| O=C(Cc1cncc2ccccc12)N(Cc1cc(F)cc(Cl)c1)c1ccc(-c2c[nH]cn2)cn1 [Compound 29] | 40 |  |
| Cc1cncc(CC(=O)N(Cc2cc(F)cc(Cl)c2)c2ccc(-c3c[nH]cn3)cc2)c1 [Compound 70] | 84 |  |
| O=C(Cc1nncc2ccccc12)N(Cc1cc(F)cc(Cl)c1)c1ccc(C2CNC2)cc1 [Compound 82, N-(4-(azetidin-3-yl)phenyl)-N-(3-chloro-5-fluorobenzyl)-2-(phthalazin-1-yl)acetamide] | 70 |  |
| COc1ccncc1CC(=O)N(Cc1cc(F)cc(Cl)c1)c1ccc(-c2c[nH]cn2)cc1 [Compound 78] | 222 |  |
| O=C(Cc1cncc2ccccc12)N(Cc1cncc(F)c1)c1ccc(C2=CCNC2)cc1 [Compound 68] | 608 |  |
| Cc1ccncc1CC(=O)N(Cc1cc(F)cc(Cl)c1)c1ccc(-c2c[nH]cn2)cc1 [Compound 77] | 136 |  |
| O=C1CNCCN1c1ccc(N(Cc2cc(F)cc(F)c2)C(=O)Cc2cncc3ccccc23)cc1 [Compound 35] | 481 |  |
| O=C1Nc2ccccc2C1CC(=O)N(Cc1cc(F)cc(Cl)c1)c1ccc(-c2c[nH]cn2)cc1 (stereo not shown) [Compound 59] | 6240 |  |
| O=C(Cc1cncc2ccccc12)N(Cc1cccc(F)c1)c1ccc(-c2c[nH]cn2)cc1 [Compound 26] | 351 |  |
| O=C(Cc1nnc2ccccn12)N(Cc1cc(F)ccc1F)c1ccc(-c2c[nH]cn2)cc1 [Compound 22] | 786 |  |
| O=C(Cc1cncc(F)c1)N(Cc1cncc(F)c1)c1ccc(C2CNC2)cc1 [Compound 83] | 5220 |  |
| O=C(Cc1cncc(Br)c1)N(Cc1cc(F)cc(F)c1)c1ccc(-c2c[nH]cn2)cc1 [Compound 65] | 187 |  |
| O=C(Cc1cnc2ccccn12)N(Cc1cc(F)cc(Cl)c1)c1ccc(-c2c[nH]cn2)cc1 [Compound 11, N-[(3-chloro-5-fluoro-phenyl)methyl]-2-imidazo[1,2-a]pyridin-3-yl-N-[4-(1H-imidazol-4-yl)phenyl]acetamide] | 65 |  |

System: SARS-CoV-2
Assay: microbe, parasite or virus in culture
Assay type: cell-based, SARS-Related Coronavirus 2, Isolate USA-WA1/2020
Conditions: Severe acute respiratory syndrome coronavirus 2, Vero C1008

| Compound | EC50 [nM] |
| --- | --- |
| O=C(Cc1cncc2ccccc12)N(Cc1cc(F)cc(Cl)c1)c1ccc(-c2c[nH]cn2)cc1 [Compound 12, N-[(3-chloro-5-fluoro-phenyl)methyl]-N-[4-(1H-imidazol-4-yl)phenyl]-2-(4-isoquinolyl)acetamide] | 1140 |
